Experimental data from US7247617B2, “Sixteen-member macrolide antiinfective agents” (Kosan Biosciences Incorporated, priority 2004, dated 2007).

How the values were obtained:
S. pneumoniae = assay: Biological activity against bacterial strains: S. pneumoniae; format: cell-based, Streptococcus pneumoniae; set-up: Biological Activity, S. pneumoniae ATCC6301 / Biological Activity, S. pneumoniae ATCC700671 / Biological Activity, S. pneumoniae ATCC700676* / Biological Activity, S. pneumoniae ATCC700677* / Biological Activity, S. pneumoniae ATCC700905* / Biological Activity, S. pneumoniae ATCC700906* / Biological Activity, S. pneumoniae ATCC49619: unit not given here; details: for Biological Activity, S. pneumoniae ATCC6301: strain ATCC6301; for Biological Activity, S. pneumoniae ATCC49619: strain ATCC49619; for Biological Activity, S. pneumoniae ATCC700671: strain ATCC700671; for Biological Activity, S. pneumoniae ATCC700676*: strain ATCC700676, macrolide resistant strain; for Biological Activity, S. pneumoniae ATCC700677*: strain ATCC700677, macrolide resistant strain; for Biological Activity, S. pneumoniae ATCC700905*: strain ATCC700905, macrolide resistant strain; for Biological Activity, S. pneumoniae ATCC700906*: strain ATCC700906, macrolide resistant strain
S. aureus = assay: Biological activity against bacterial strains: S. aureus; format: cell-based, Staphylococcus aureus; set-up: unit not given here; details: for Biological Activity, S. aureus ATCC6538p: strain ATCC6538p; for Biological Activity, S. aureus ATCC14154*: strain ATCC14154, macrolide resistant strain; for Biological Activity, S. aureus ATCC29213: strain ATCC29213; for Biological Activity, S. aureus ATCC33591*: strain ATCC33591, macrolide resistant strain; for Biological Activity, S. aureus ATCCBAA-39*: strain ATCCBAA-39, macrolide resistant strain; for Biological Activity, S. aureus ATCCBAA-44*: strain ATCCBAA-44, macrolide resistant strain
S. epidermidis = assay: Biological activity against bacterial strains: S. epidermidis; format: cell-based, Staphylococcus epidermidis; details: strain ATCC12228
E. faecalis = assay: Biological activity against bacterial strains: E. faecalis; format: cell-based, Enterococcus faecalis; details: strain ATCC51575
Haemophilus Influenzae = assay: H. influenzae Activity; format: cell-based
[1] = system: a series of bacterial strains; assay: Biological activity against a series of bacterial strains (overall statements); format: cell-based
From the text: Results for S. pneumoniae, S. aureus, S. epidermidis, and E. faecalis are provided in Table B. Data on activity against H. influenzae for selected compounds are presented in Table C.

Row | Structure (SMILES) | Biological Activity, S. pneumoniae ATCC6301 (S. pneumoniae) | Biological Activity, S. pneumoniae ATCC49619 (S. pneumoniae) | Biological Activity, S. pneumoniae ATCC700671 (S. pneumoniae) | Biological Activity, S. pneumoniae ATCC700676* (S. pneumoniae) | Biological Activity, S. pneumoniae ATCC700677* (S. pneumoniae) | Biological Activity, S. pneumoniae ATCC700905* (S. pneumoniae) | Biological Activity, S. pneumoniae ATCC700906* (S. pneumoniae) | Biological Activity, S. aureus ATCC6538p (S. aureus) | Biological Activity, S. aureus ATCC14154* (S. aureus) | Biological Activity, S. aureus ATCC29213 (S. aureus) | Biological Activity, S. aureus ATCC33591* (S. aureus) | Biological Activity, S. aureus ATCCBAA-39* (S. aureus) | Biological Activity, S. aureus ATCCBAA-44* (S. aureus) | Biological Activity, S. epidermidis ATCC12228 (S. epidermidis) | Biological Activity, E. faecalis ATCC51575 (E. faecalis) | H. influenzae Activity, strain ATCC9006 (Haemophilus Influenzae) | H. influenzae Activity, strain ATCC49766 (Haemophilus Influenzae) | further results
1 | CCC1OC(=O)CC(O)C(C)C(OC2OC(C)C(O)C(N(C)C)C2O)C(CC=O)CC(C)C(=NOCCCCOc2ccc3ncccc3c2)C=CC(C)=CC1COC(=O)NCc1ccccc1 (stereo not shown) [Compound EE] | 0.049 | 0.098 | 0.2 | 0.049 | 0.39 | 0.049 | >12.5 | 3.12 | 6.25 | 6.25 | >12.5 | >12.5 | >12.5 | 6.25 | >12.5 | 12.5 | >12.5 | 
2 | CCC1OC(=O)CC(O)C(C)C(OC2OC(C)C(O)C(N(C)C)C2O)C(CC=O)CC(C)C(=NOCC=Cc2cnc3ccccc3c2)C=CC(C)=CC1COC(=O)NCc1ccccc1 (stereo not shown) [Compound FF] | 0.2 | 0.2 | 0.2 | 0.049 | 0.2 | 0.098 | >12.5 | 1.56 | 6.25 | 3.12 | 12.5 | >12.5 | >12.5 | 3.12 | >12.5 | 12.5 | 12.5 | 
3 | CC[C@H]1OC(=O)C[C@@H](O)[C@H](C)[C@@H](OC2OC(C)C(O)C(N(C)C)C2O)[C@@H](CC=O)C[C@@H](C)C(=N\OCCOc2ccccc2)/C=C/C(C)=C/C1CO (stereo partly shown) [Compound IIb] | 0.025 | 0.20 | 0.20 | 0.025 | 1.56 | 0.20 | >12.5 | 0.39 | 1.56 | 1.56 | >12.5 | >12.5 | >12.5 | 0.78 | >12.5 |  |  | activity of Z-configuration oxime versus its E counterpart (in words) [1]: more active than compound Ia
4 | CCC1OC(=O)CC(O)C(C)C(OC2OC(C)C(O)C(N(C)C)C2O)C(CC=O)CC(C)C(=NOCCCCc2cnc3ccccc3c2)C=CC(C)=CC1CO (stereo not shown) [Compound J] | 0.025 | 0.049 | 0.025 | 0.025 | 0.025 | 0.025 | >12.5 | 0.025 | 0.20 | 0.20 | >12.5 | >12.5 | >12.5 | 0.20 | >12.5 | 6.25 | 6.25 | decrease in activity compared to OMT (Haemophilus Influenzae; strains ATCC9006 and ATCC49766): ~4 fold
5 | CC[C@H]1OC(=O)C[C@@H](O)[C@H](C)[C@@H](O[C@@H]2O[C@H](C)[C@@H](O)[C@H](N(C)C)[C@H]2O)[C@@H](CC=O)C[C@@H](C)C(=O)/C=C/C(C)=C/[C@@H]1CO [OMT, 5-O-mycaminosyltylonolide, reference compound] | 0.025 | 0.098 | 0.049 | 0.78 | 6.25 | 0.78 | >12.5 | 0.39 | 1.56 | 0.78 | >12.5 | >12.5 | >12.5 | 0.39 | >12.5 | 1.56 | 1.56 | H. influenzae Activity, strain EH001 (Haemophilus Influenzae; strain EH001): 3.12; H. influenzae Activity, strain EH002 (Haemophilus Influenzae; strain EH002): 6.25; H. influenzae Activity, strain EH003 (Haemophilus Influenzae; strain EH003): 1.56
